Patent publication US9938266B2, “Selective BACE1 inhibitors” (Eli Lilly and Company, priority 2015, dated 2018)
Like-named read-outs stand apart in the source and are kept apart here.

What was measured:
[1] = target: T1, BACE1 (Homo sapiens, UniProt P56817); assay: SH-SY5YAPP695Wt Whole Cell Assay (Abeta ELISA); type: cell-based; settings: SH-SY5YAPP695Wt cells, 24 hours
T1 construct: endogenous in cells; host or cells: SH-SY5Y (ATCC CRL2266) stably expressing human APP695Wt
Method: (§1) To assess BACE1 selectivity over BACE2, the test compound is evaluated in FRET-based enzymatic assays using specific substrates for BACE1 and BACE2 as described below. For in vitro enzymatic and cellular assays, the test compound is prepared in DMSO to make up a 10 mM stock solution. The stock solution is serially diluted in DMSO to obtain a ten-point dilution curve with final compound concentrations ranging from 10 μM to 0.05 nM in a 96-well round-bottom plate before conducting the in vitro enzymatic and whole cell assays.
The routine whole cell assay for the measurement of inhibition of BACE1 activity utilizes the human neuroblastoma cell line SH-SY5Y (ATCC Accession No. CRL2266) stably expressing a human APP695Wt cDNA. Cells are routinely used up to passage number 6 and then discarded.
SH-SY5YAPP695Wt cells are plated in 96 well tissue culture plates at 5.0×10^4 cells/well in 200 μL culture media (50% MEM/EBSS and Ham's F12, 1× each sodium pyruvate, non-essential amino acids and Na bicarbonate containing 10% FBS). The following day, media is removed from the cells, fresh media added then incubated at 37° C. for 24 hours in the presence/absence of test compound at the desired concentration range.
At the end of the incubation, conditioned media are analyzed for evidence of beta-secretase activity by analysis of Abeta peptides 1-40 and 1-42 by specific sandwich ELISAs. […]

[2] = target: T2, human BACE2 (1-460):Fc (Homo sapiens, UniProt Q9Y5Z0); assay: BACE2 TMEM27 FRET Assay; type: biochemical
T2 construct: made in house; host or cells: HEK293 (transient, secreted into conditioned media, Protein A purified)
T2 sequence (Q9Y5Z0 21-460): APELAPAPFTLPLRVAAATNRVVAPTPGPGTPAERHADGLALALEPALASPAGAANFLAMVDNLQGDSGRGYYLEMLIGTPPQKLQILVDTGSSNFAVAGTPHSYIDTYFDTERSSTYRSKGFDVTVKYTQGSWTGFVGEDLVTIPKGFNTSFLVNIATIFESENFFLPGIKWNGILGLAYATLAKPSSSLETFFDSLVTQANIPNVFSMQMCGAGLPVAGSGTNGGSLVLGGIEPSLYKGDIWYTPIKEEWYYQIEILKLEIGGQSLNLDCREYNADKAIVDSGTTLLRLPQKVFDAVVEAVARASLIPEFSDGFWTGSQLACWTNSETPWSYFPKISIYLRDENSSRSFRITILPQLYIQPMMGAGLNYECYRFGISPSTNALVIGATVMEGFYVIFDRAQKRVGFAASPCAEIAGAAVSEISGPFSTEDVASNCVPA
Method: as §1
Human BACE1 (accession number: AF190725) and human BACE2 (accession number: AF 204944) are cloned from total brain cDNA by RT-PCR. […]
(§2) Conditioned media of HEK293 cell transiently transfected with huBACE1:Fc or huBACE2:Fc cDNA are collected. […] The purity of final product is assessed by electrophoresis in 4-20% Tris-Glycine SDS-PAGE. […]
Transmembrane protein 27 (TMEM27) (Accession Number NM_020665), also known as Collectrin) is a recently described substrate for BACE2, but not BACE1 (Esterhazy, et al, Cell Metabolism, 14, 365-377 (2011)). […] The RFU of the mixture at time 0 is recorded at excitation wavelength 430 nm and emission wavelength 535 nm. […] The RFU at the end of incubation is recorded with the same excitation and emission settings used at time 0. […]

[3] = target: T3, human BACE1(1-460):Fc (Homo sapiens, UniProt P56817); assay: BACE1 FRET Assay; type: biochemical; settings: purified recombinant huBACE1:Fc, n=6, mean±SEM
T3 construct: made in house; host or cells: HEK293 (transient, secreted into conditioned media, Protein A purified)
Method: as §1
Human BACE1 (accession number: AF190725) and human BACE2 (accession number: AF 204944) are cloned from total brain cDNA by RT-PCR. The nucleotide sequences corresponding to amino acid sequences #1 to 460 are inserted into the cDNA encoding human IgG1 (Fc) polypeptide (Vassar et al., Science, 286, 735-742 (1999)). […]
as §2
Serial dilutions of the test compounds are prepared as described above. […] The RFU of the mixture at time 0 is recorded at excitation wavelength 355 nm and emission wavelength 460 nm, after brief mixing on a plate shaker. […] The RFU at the end of incubation is recorded with the same excitation and emission settings used at time 0. […]

[4] = target: T4, beta-secretase (Mus musculus, UniProt P56818); assay: In Vivo Inhibition of Beta-Secretase (brain Abeta 1-x, PDAPP mice); settings: young female PDAPP mice, three hours, vs vehicle; for Abeta 1-x peptide levels reduced in brain cortex: p<0.01
T4 construct: from tissue; host or cells: brain (hippocampus, cortex) of young female PDAPP mice, in vivo
From the text: Several animal models, including mouse, guinea pig, dog, and monkey, may be used to screen for inhibition of beta-secretase activity in vivo following compound treatment. Animals used in this invention can be wild type, transgenic, or gene knockout animals. For example, the PDAPP mouse model, prepared as described in Games et al., Nature 373, 523-527 (1995), and other non-transgenic or gene knockout animals are useful to analyze in vivo inhibition of Abeta and sAPPbeta production in the presence of inhibitory compounds. Generally, 2 month old PDAPP mice, gene knockout mice or non-transgenic animals are administered compound formulated in vehicles, such as corn oil, beta-cyclodextran, phosphate buffers, PHARMASOLVE®, or other suitable vehicles via oral, subcutaneous, intra-venous, feeding, or other route of administration. One to twenty-four hours following the administration of compound, animals are sacrificed, and brains are removed for analysis of Abeta 1-x. “Abeta 1-x” as used herein refers to the sum of Abeta species that begin with residue 1 and end with a C-terminus greater than residue 28. This detects the majority of Abeta species and is often called “total Abeta”. Total Abeta peptides (Abeta 1-x) levels are measured by a sandwich ELISA, using monoclonal 266 as a capture antibody and biotinylated 3D6 as reporting antibody. (See May, et al., Journal of Neuroscience, 31, 16507-16516 (2011)).
For acute studies, compound or appropriate vehicle is administered and animals are sacrificed at about 3 hours after dosing. Brain tissue, is obtained from selected animals and analyzed for the presence of Abeta 1-x. After chronic dosing brain tissues of older APP transgenic animals may also be analyzed for the amount of beta-amyloid plaques following compound treatment.
For Example 1, three hours following a 3, 10, and 30 mg/kg oral dose of the compound to young female PDAPP mice, Abeta 1-x peptide levels are reduced approximately 22%, 42%, and 51% in brain hippocampus and 26%, 43%, and 59% in brain cortex p<0.01, compared to vehicle-treated mice.

T4 sequence (P56818 46-501): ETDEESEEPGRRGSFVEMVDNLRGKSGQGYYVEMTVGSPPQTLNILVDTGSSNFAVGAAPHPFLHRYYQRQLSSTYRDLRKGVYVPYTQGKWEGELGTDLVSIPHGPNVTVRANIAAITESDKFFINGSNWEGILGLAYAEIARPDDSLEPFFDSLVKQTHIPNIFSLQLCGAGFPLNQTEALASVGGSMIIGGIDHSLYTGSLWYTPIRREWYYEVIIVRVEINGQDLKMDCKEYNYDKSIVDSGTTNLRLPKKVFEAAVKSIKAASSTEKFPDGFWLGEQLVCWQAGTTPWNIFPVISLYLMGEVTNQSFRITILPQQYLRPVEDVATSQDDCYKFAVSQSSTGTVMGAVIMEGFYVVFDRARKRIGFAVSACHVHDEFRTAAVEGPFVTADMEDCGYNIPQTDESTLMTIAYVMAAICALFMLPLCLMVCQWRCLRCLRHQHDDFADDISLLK
T1 sequence (P56817 46-501): as the sequence (P56818 46-501) above, with S6P, I162V, I165L, T180S, A182V, V340I, A393L, H443Q counted along it
T3 sequence (P56817 22-460): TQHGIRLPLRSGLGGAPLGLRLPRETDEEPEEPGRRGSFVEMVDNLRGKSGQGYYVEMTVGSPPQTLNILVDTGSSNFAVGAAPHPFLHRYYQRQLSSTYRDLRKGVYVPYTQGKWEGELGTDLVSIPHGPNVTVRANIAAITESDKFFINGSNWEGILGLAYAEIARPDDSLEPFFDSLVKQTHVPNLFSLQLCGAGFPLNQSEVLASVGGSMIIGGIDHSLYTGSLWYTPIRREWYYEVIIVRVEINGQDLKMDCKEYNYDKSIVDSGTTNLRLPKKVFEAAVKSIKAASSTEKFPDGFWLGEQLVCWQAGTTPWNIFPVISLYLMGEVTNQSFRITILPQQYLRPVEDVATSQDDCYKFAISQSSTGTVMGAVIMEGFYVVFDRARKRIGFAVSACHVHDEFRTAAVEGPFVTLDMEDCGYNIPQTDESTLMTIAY

NC1=N[C@@]2(c3cc(NC(=O)c4cnc(-n5cncn5)cn4)ccc3F)C[C@@H](OC3CC3)C[C@H]2CS1 [Example 1, N-[3-[(4aR,6S,7aS)-2-Amino-6-(cyclopropoxy)-4a,5,6,7-tetrahydro-4H-cyclopenta[d][1,3]thiazin-7a-yl]-4-fluoro-phenyl]-5-(1,2,4-triazol-1-yl)pyrazine-2-carboxamide]
IC50 ([1]; n=3, mean±SEM, read-out: IC50 SH-SY5YAPP695Wt A-beta (1-42) ELISA): 0.43 ± 0.08 nM
IC50 ([1]; n=4, mean±SEM, read-out: IC50 SH-SY5YAPP695Wt A-beta (1-40) ELISA): 0.38 ± 0.14 nM
IC50 ([2]; huBACE2:Fc, TMEM27 FRET substrate, n=4, mean±SEM): 87.3 ± 11.1 nM
ratio of BACE2 IC50 (TMEM27 FRET) to BACE1 IC50 (FRET) ([2]; selectivity for BACE1 over BACE2): about 91 fold
IC50 [3]: 0.955 ± 0.093 nM
Abeta 1-x peptide levels reduced in brain hippocampus ([4]; 3 mg/kg oral): approximately 22%
Abeta 1-x peptide levels reduced in brain cortex ([4]; 3 mg/kg oral): ~26%
Abeta 1-x peptide levels reduced in brain hippocampus ([4]; 10 mg/kg oral): ~42%
Abeta 1-x peptide levels reduced in brain cortex ([4]; 10 mg/kg oral): ~43%
Abeta 1-x peptide levels reduced in brain hippocampus ([4]; 30 mg/kg oral): ~51%
Abeta 1-x peptide levels reduced in brain cortex ([4]; 30 mg/kg oral): ~59%
